From patent US10766873B2, “Zuclopenthixol hydrochloride derivatives and Ebselen derivatives as ErbB2 inhibitors” (Centre National de la Recherche Scientifique (CNRS), priority 2016, dated 2020)

Columns and labels:
[1] = test system: SKBR3; assay: Soft agar colony formation, SKBR3; type: cell-based, human; settings: 5 or 10 μM, 6 weeks
Procedure: (§1) A bottom layer of 0.8% agarose in DMEM supplemented with 20% SVF and penicillin/streptomycin was added to 24 well plates before seeding 25.10^3 SKBR3 or BT474 cells/well in a 0.6% agarose top layer. Cells were left untreated or treated with 5 or 10 μM ZU or EB1 or 5 μM AG1478 (a non-specific ErbB2 kinase inhibitor) as a positive control. Treatments were renewed 3 times a week. After 6 weeks, the number of colonies and their size were quantified using image J software. The colony formation is illustrated for each condition. Data are presented as mean±SEM.

[2] = test system: BT474; assay: Soft agar colony formation, BT474; type: cell-based, human; settings: 5 or 10 μM, 6 weeks
Procedure: as §1

[3] = target: peptide encoding the juxtamembrane region of ERBB2 (Homo sapiens, UniProt P04626); assay: Surface Plasmon Resonance, Biacore T200; type: binding
From the text: We analyzed the ability of ZU to directly bind to the juxtamembrane domain of ErbB2 using Surface Plasmon Resonance assays on a Biacore T200. For that, we compared the affinity of the compounds for a peptide containing the Ezrin binding motif […] of ErbB2 immobilized on sensorchips, which was reflected by the amplitude of the SPR response.
Compound ZU and EB1 were validated for their interaction with peptide encoding the juxtamembrane region of ERBB2 using a Biacore T200 (IECB, Bordeaux). Biotinylated peptide encoding the juxtamembrane region of ERBB2 (biotin-[…]) has been immobilized on Streptavidin-coated sensor chips (Series S sensor chip SA, GE Healthcare). Compound ZU in PBS, 0.02% tween20 buffer was used as analyte, and the Ezrin FERM domain has been used as a positive control.

`O=C1c2ccccc2[Se](=O)N1c1ccccc1` (stereo not drawn) [EB1, Ebselen oxide] was tested, and the “anchorage-independent growth of SKBR3 (in words)” value [1] was “inhibited the anchorage-independent growth”, the “anchorage-independent growth of BT474 (in words)” value [2] was “inhibited the anchorage-independent growth” and the “binding to immobilized ErbB2 juxtamembrane peptide (SPR, in words)” value [3] was “bound to the immobilized peptide”.
